Data as given in US20100203110A1, “Therapeutics for Cancer Using 3-Bromopyruvate and Other Selective Inhibitors of ATP Production” (The Johns Hopkins University, priority 2006, published 2010).
“Also recorded” adds a separate entry of the source.

What was measured:
[1] = tested on: liver implanted VX2 tumors; experiment: Single direct intraarterial bolus injection into liver implanted VX2 tumors, histology; assay type: in vivo, rabbit
Description: The rabbit VX2 tumor was selected for implantation in the liver because of the similarities of its blood supply to that of human hepatomas. Other attributes of this tumor include rapid tumor growth, development of a sizable tumor that can be readily identified by x-ray imaging (fluoroscopy), and a biochemical phenotype characteristic of advanced stage tumors, i.e., high glycolysis and elevated levels of mitochondrial bound hexokinase. In addition, the rabbit is large enough that selective manipulation of catheters in the hepatic artery from the common femoral artery for delivery of agents is possible. Adult New Zealand white rabbits (32 total, Robinson Services, Inc.) weighing 3.5-4.2 kg were used. Studies with these animals were approved by the Johns Hopkins University Animal Care and Use Committee and carried out according to their guidelines. For successful implantation of the VX2 tumor into the liver, it was first grown for 2 weeks on the hind leg of a carrier rabbit. Each carrier rabbit was used to supply tumor cells for implantation into the left lobe of the liver of 2 separate rabbits. All animals, carriers and recipients, were anesthetized with a mixture of acepromazine (2.5 mg/kg) and ketamine hydrochloride (44 mg/kg) administered intramuscularly. Intravenous access was gained via a marginal ear vein and sodium pentothal was given intravenously to maintain anesthesia. The VX2 tumor was then excised from the carrier rabbit and placed in Hanks solution. Chunks of the tumor were minced in the same solution. Then, the abdomens of the recipient rabbits were shaved and prepped with betadine after which a midline subxyphoid incision was made. The anterior surface of the liver was exposed and tumor cells (0.1-0.2 ml) from the minced donor tumor were directly implanted onto the left lobe of the liver using the outer cannula of a 21-gauge angiocatheter. This method allows the growth of a single solitary, well-demarcated tumor in the liver of each recipient rabbit. The abdomen was closed in 2 layers. Proper aseptic technique was rigorously observed during each implantation. After surgery, animals were returned to their cages, kept warm with blankets, and monitored in the animal laboratory under the direct supervision of a physician or a technician until they recovered from anesthesia. […] The tumors were allowed to grow for another 14 days at which time they reached an ellipsoidal shape with dimension of approximately 1.5×1.8×2.5 cm.
The solutions of 3-bromopyruvate (3-BrPA, Sigma Chemical Co., St. Louis, Mo.) were prepared in phosphate-buffered saline (PBS). After adjusting the pH to 7.0 with NaOH the solutions were sterilized via Millipore's Millexâ GV 0.22 mm filter unit and used immediately. Freshly made solutions were used in all studies reported here.
Administration of anesthesia, intravenous access and sodium pentothal anesthesia were carried out as described in Example 12. Transcatheter hepatic artery injection of 3-BrPA was performed under fluoroscopy. The animals were brought to the angiography suite and intubated using a size 3.0 mm endotracheal tube (Mallinkrodt Medical, St. Louis, Mo.) but not ventilated. Surgical cut-down was performed to gain access into the right common femoral artery, after which a 3 French sheath (Cook Inc., Bloomington, Ind.) was placed. A specially manufactured 2 French catheter with a tip in the shape of a hockey-stick (JB1 catheter, Cook Inc., Bloomington, Ind.) was manipulated into the celiac axis after which a celiac arteriogram was performed in order to delineate the blood supply to the liver and confirm the location of the tumor. The tumor could readily be visualized as a region of hypervascular blush located on the left side of the liver near the gastric fundus. The left hepatic artery, which usually provides most of the blood flow to the tumor, was selectively catheterized via the common hepatic artery. […]

VX2 = experiment: Caspase-3 activity, VX2; assay type: cell-based, rabbit; conditions: 1 mM for 3 hour
Protocol: Caspase-3 activity and reduced cell viability was also measured in cell lines (HepG2, THLE-2, and VX2 cell lines) following 3-bromopyruvate treatment (1 mM for 3 hour) (FIG. 6A). Caspase-3 activity increased in each cell line following treatment and cell viability decreased following treatment. An increase in caspase-3 activity indicated the mechanism of cell death is apoptotic. FIGS. 6 B and C show cell viability is reduced in each cell line with increasing 3-bromopyruvate concentration after 1 and 3 hours of treatment.

VX2 rabbit liver tumors = experiment: Intraarterial dose and infusion modality optimisation in VX2 liver cancer; assay type: in vivo
Protocol: In a therapeutic dose study, 25 ml of 2.5 and 5 mM 3-BrPA were injected as a single intraarterial bolus over two minutes. Although these doses (2.5 and 5 mM) were 0.5 and 1 log higher than the 0.5 mM dose previously investigated, these doses were well within the IV therapeutic dose established in rats and rabbits.
Since patients with HCC also suffer from underlying liver disease such as cirrhosis and hepatitis, an important translational consideration for therapy is the absolute necessity to protect and preserve healthy liver parenchyma. To lessen the degree of liver toxicity, different temporal modalities of intraarterial injection were tested. One possibility was that such a large volume, delivered within the short time of 2 minutes may have added physical and chemical toxic effects on the liver. Thus, a 1-hour continuous infusion and a serial infusion of 2 boluses administered an hour apart were compared against the original single bolus dose. The volume of 25 mL and the concentration of 2.5 mM 3-bromopyruvate were kept constant. […] In each of these experiments, rabbits were sacrificed 48 hours after treatment and representative sections obtained of tumor and normal tissues (7 slides/sample). The samples were subjected to histopathological analysis to determine percentage tumor cell death and damage to the surrounding normal liver tissue. This was then confirmed with the TUNEL assay (FIG. 7) and Ki-67 immunohistochemistry. […] The prolonged slow infusion eliminated most, if not all, of the unwanted damage to the normal liver enabling the use of a much higher dose of 3-bromopyruvate to ensure complete destruction of the tumor.
Having determined that prolonged intraarterial infusion of 3-bromopyruvate was the optimal method of administration, a dose-response analysis was conducted. In part, this dose-response analysis was prompted by the persistent toxicity to healthy liver encountered at 2.5 mM. The objective was to optimize the 1-hour infusion in order to achieve complete tumor eradication without any toxicity to the normal liver parenchyma. Rabbits were intraarterially infused over 1-hour with doses ranging between 0.5 and 2.5 mM in 0.25 mM increments. The rabbits were fasted 24 hours prior to treatment and euthanized 48 hours after treatment. […] This total destruction was identified by histopathology (H&E) and confirmed by the TUNEL assay (FIG. 7). […] One possible explanation for this finding may be that 3-bromopyruvate at higher doses may have other cellular and chemical functions that are much more toxic to the normal liver parenchyma therein impeding the delivery of 3-bromopyruvate exclusively to the tumor. Thus, the healthy liver's ability to metabolize 3-bromopyruvate was optimal at the concentration of 1.75 mM.
To further explore use of the continuous infusion method of delivery, the effect of a 2-hour continuous infusion of 50 mL 1.75 mM 3-BrPA was tested.

[2] = single intraarterial injection, 4 days
[3] = 25 ml 5 mM, single IA bolus over two minutes

O=C(O)C(=O)CBr [3-bromopyruvate]
damage to 9 major tissues ([1]; 4 days after single intraarterial injection): In no case was there evidence for damage
damage to portal veins, sinusoids, bile ducts and arteriolar complexes ([1]; much higher concentrations (5 mM), intraarterial): only apparent damage occurring occasionally in the peribiliary arteriolar complexes
necrosis (non-viable cells) in tumor sections outside the central core ([1]; single IA bolus 25 ml 0.5 mM, 4 days): ~100%
total number of viable cells in liver implanted tumors, lowest reached ([1]; single injection): 10%
maximal number of non-viable cells observed in any one experiment ([1]; single intraarterial injection): 90%
total number of non-viable cells in the tumor population [1, 2]: 84±5%
viable cells in the entire tumor population [1, 2]: 16±5%
viability / damage of surrounding liver tissue ([1]; single intraarterial injection, 4 days, listed as 3-BrPA): no damage; also recorded: remained completely viable
Caspase-3 activity (VX2): increased
major organ toxicity (VX2 rabbit liver tumors; 1-hour intraarterial infusion of 25 mL of 1.75 mM): without any evidence of major organ toxicity
tumor kill and liver toxicity versus 1-hour infusion (VX2 rabbit liver tumors; 2-hour continuous infusion of 50 mL 1.75 mM): no significant difference
damage to the normal liver (VX2 rabbit liver tumors; 25 mL 1.75 mM, 1-hour IA infusion): without any damage
tumor cell destruction (VX2 rabbit liver tumors; 25 mL 1.75 mM, 1-hour IA infusion, 48 hours, H&E and TUNEL): 100%
liver toxicity versus single bolus and 2 serial boluses (VX2 rabbit liver tumors; 25 mL 2.5 mM, 1-hour continuous IA infusion, 48 hours): considerably less
surrounding healthy liver (VX2 rabbit liver tumors; 25 ml 2.5 mM, single IA bolus): large areas of necrosis and fatty changes
survival after treatment (VX2 rabbit liver tumors; 25 ml 2.5 mM, single IA bolus): barely able to survive for more than 48 hours
tumor destruction (VX2 rabbit liver tumors; 25 ml 2.5 mM, single IA bolus over two minutes): complete tumor destruction
mortality (VX2 rabbit liver tumors; 25 ml 5 mM, single IA bolus): death of all the rabbits
other major organs, histopathology at necropsy (VX2 rabbit liver tumors; 25 ml 5 mM, single IA bolus): completely uneffected
surrounding healthy liver (VX2 rabbit liver tumors; [3]): widespread necrosis
tumor destruction (VX2 rabbit liver tumors; [3]): completely destroyed the tumor
toxicity to the healthy liver tissue (VX2 rabbit liver tumors; doses higher than 1.75 mM, 1-hour IA infusion): increased toxicity
